Source: patent US20080009418A1, “Selective Inhibitors” (Alchemia LTD., priority 2004, published 2008)

Assays:
Conditions in all cases: compound at 10 μM
Human opioid (ORL1) = molecular target: T1, Human opioid (ORL1) (Homo sapiens, UniProt P41146); experiment: Radioligand binding, human opioid ORL1 membranes, FlashPlate, [125I]-Nociceptin
T1 construct: purchased Perkin Elmer Biosignal
Outline: (§1)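 Cloned human receptor membranes were coated onto FlashPlate wells and incubated with radioligand and compound (added from a 0.5 mM DMSO daughter plate) for 1 hour at room temperature in the dark. Scintillation counting gave percent inhibition, with DMSO defining total and reference ligand defining non-specific binding.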

Mouse urotensin (mUR2) = molecular target: T2, Mouse urotensin (mUR2) (Mus musculus, UniProt Q8VIH9); experiment: Radioligand binding, mouse urotensin mUR2 membranes, FlashPlate, [125I]-Urotensin II
T2 construct: purchased Perkin Elmer Biosignal
T2 sequence (Q8VIH9 1-385): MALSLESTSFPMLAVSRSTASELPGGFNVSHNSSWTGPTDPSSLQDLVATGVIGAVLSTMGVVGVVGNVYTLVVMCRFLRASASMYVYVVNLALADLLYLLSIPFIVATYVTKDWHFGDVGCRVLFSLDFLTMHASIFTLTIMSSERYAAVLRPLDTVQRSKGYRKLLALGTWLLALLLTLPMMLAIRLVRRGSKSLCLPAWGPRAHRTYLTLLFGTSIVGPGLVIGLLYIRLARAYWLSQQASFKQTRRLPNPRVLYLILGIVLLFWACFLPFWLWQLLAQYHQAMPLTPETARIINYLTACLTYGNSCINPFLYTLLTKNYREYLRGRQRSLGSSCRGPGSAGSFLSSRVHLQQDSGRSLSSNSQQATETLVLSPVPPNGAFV
Outline: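 Cloned mouse urotensin (mUR2) receptor membranes from Perkin Elmer Biosignal were immobilized in FlashPlate microplates using a proprietary coating. Each well got 19.5 μl buffer, then 0.5 μl of DMSO, reference ligand, or compound. Adding 5 μl of [125I]-Urotensin II, diluted to 5× final concentration in binding buffer, started binding. Plates were sealed with TopSeal-A and incubated 1 hour at room temperature in the dark. Wells were counted for 30 seconds each on a TopCount after a 60-second delay, and percentage inhibition was calculated.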

Human neurokinin (NK1) = molecular target: T3, Human neurokinin (NK1) (Homo sapiens, UniProt P25103); experiment: Radioligand binding, human neurokinin NK1 membranes, filtration, [125I]-Substance P
T3 construct: purchased Perkin Elmer Biosignal
T3 sequence (P25103 whole entry): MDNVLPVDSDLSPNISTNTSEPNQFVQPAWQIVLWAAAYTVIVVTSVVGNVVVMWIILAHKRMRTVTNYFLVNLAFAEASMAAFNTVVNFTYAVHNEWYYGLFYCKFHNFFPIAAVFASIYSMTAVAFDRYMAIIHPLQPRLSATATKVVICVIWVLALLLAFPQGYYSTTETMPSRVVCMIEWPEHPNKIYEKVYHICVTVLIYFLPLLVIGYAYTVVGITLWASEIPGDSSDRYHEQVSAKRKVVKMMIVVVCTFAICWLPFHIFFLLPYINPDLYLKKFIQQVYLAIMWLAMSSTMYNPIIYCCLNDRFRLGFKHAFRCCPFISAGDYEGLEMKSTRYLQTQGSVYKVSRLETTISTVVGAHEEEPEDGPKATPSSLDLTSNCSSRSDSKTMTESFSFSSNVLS
Outline: (§2)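 Filtration binding on cloned human receptor membranes (1 Unit/well), [125I]-Substance P for NK1 and [3H]-Diprenorphine for KOP, 1 h at room temperature. Filters PEI-presoaked, washed with cold 50 mM Tris-HCl pH 7.4, counted by scintillation; percent inhibition calculated, reference ligand defining non-specific binding.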

Human melanocortin (MC5) = molecular target: T4, Human melanocortin (MC5) (Homo sapiens, UniProt P33032); experiment: Radioligand binding, human melanocortin MC5 membranes, FlashPlate, [125I]-NDP-αMSH
T4 construct: purchased Perkin Elmer Biosignal
T4 sequence (P33032 whole entry): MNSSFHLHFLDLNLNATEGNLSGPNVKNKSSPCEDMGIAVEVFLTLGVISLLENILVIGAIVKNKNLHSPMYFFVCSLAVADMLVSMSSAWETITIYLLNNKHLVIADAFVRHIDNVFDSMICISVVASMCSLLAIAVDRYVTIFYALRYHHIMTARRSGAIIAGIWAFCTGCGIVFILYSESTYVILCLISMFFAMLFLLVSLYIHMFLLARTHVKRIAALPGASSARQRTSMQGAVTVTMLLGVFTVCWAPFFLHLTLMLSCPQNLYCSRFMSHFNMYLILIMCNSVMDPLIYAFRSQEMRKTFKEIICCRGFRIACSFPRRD
Outline: as §1

Human Melanocortin (MC4) = molecular target: T5, Human Melanocortin (MC4) (Homo sapiens, UniProt P32245); experiment: Radioligand binding, human melanocortin MC4 membranes, FlashPlate, [125I]-NDP-αMSH
T5 construct: purchased Perkin Elmer Biosignal
T5 sequence (P32245 whole entry): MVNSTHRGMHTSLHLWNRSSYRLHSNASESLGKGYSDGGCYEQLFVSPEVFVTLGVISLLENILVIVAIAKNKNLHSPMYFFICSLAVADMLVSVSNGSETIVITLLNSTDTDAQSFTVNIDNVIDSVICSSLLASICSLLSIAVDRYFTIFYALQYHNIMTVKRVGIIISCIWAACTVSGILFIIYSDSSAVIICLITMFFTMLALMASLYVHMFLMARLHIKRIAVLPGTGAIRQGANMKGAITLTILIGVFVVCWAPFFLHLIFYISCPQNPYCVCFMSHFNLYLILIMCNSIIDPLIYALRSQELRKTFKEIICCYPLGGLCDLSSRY
Outline: as §1

Human δ-opioid (DOP) = molecular target: T6, Human δ-opioid (DOP) (Homo sapiens, UniProt P41143); experiment: Radioligand binding, human δ-opioid (DOP) membranes, FlashPlate, [3H]-Bremazocine
T6 construct: purchased Perkin Elmer Biosignal
T6 sequence (P41143 whole entry): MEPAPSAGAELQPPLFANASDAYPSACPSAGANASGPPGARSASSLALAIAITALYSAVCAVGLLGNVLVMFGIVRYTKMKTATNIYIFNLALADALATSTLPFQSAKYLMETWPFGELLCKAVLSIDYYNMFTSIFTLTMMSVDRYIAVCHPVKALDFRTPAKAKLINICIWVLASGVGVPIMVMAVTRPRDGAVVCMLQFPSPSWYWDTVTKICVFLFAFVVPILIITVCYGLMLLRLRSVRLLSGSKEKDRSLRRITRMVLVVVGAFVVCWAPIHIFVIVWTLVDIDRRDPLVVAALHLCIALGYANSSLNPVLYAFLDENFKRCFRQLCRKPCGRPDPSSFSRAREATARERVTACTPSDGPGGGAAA
Outline: as §1

Human Melanocortin (MC3) = molecular target: T7, Human Melanocortin (MC3) (Homo sapiens, UniProt P41968); experiment: Radioligand binding, human melanocortin MC3 membranes, FlashPlate, [125I]-NDP-αMSH
T7 construct: purchased Perkin Elmer Biosignal
T7 sequence (P41968 whole entry): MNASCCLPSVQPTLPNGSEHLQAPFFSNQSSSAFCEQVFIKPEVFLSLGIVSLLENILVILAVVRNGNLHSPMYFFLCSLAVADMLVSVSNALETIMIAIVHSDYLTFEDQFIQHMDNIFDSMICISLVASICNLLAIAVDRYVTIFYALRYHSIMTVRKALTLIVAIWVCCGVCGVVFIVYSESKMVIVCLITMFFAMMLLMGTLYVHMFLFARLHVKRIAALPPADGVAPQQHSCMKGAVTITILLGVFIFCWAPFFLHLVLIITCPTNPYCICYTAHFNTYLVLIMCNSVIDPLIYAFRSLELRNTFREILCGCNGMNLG
Outline: as §1

[1] = molecular target: T8, Human melanin-concentrating hormone (MCH1) (Homo sapiens, UniProt Q99705); experiment: Radioligand binding, human melanin-concentrating hormone MCH1 membranes, FlashPlate, [125I]-S36057
T8 construct: purchased Perkin Elmer Biosignal
T8 sequence (Q99705 whole entry): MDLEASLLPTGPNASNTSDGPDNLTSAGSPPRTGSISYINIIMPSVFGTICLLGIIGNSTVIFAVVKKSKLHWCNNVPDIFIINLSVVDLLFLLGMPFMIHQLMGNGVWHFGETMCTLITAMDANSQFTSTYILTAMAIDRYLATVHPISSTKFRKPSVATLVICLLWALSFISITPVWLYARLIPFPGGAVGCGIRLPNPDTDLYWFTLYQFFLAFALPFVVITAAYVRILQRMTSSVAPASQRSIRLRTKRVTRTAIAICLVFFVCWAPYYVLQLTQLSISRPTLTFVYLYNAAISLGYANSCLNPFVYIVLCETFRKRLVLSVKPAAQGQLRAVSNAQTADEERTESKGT
Outline: as §1

[2] = molecular target: T9, Human neuropeptide Y (NPY-Y1) (Homo sapiens, UniProt P25929); experiment: Radioligand binding, human neuropeptide Y NPY-Y1 membranes, FlashPlate, [125I]-PYY
T9 construct: purchased Perkin Elmer Biosignal
T9 sequence (P25929 1-384): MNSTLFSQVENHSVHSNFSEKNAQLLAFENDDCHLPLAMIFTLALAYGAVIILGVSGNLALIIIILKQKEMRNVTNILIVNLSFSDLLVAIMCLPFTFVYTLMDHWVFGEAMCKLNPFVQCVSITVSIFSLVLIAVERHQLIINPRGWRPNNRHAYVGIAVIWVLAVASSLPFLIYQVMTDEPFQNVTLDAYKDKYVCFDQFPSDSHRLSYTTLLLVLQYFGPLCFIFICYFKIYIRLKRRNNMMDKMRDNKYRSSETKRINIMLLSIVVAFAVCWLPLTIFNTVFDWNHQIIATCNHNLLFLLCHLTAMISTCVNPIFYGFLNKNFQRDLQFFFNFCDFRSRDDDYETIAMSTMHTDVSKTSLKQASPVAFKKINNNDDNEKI
Outline: as §1

Human κ-Opioid (KOP) = molecular target: T10, Human κ-Opioid (KOP) (Homo sapiens, UniProt P41145); experiment: Radioligand binding, human κ-opioid (KOP) membranes, filtration, [3H]-Diprenorphine
T10 construct: purchased Perkin Elmer Biosignal
T10 sequence (P41145 whole entry): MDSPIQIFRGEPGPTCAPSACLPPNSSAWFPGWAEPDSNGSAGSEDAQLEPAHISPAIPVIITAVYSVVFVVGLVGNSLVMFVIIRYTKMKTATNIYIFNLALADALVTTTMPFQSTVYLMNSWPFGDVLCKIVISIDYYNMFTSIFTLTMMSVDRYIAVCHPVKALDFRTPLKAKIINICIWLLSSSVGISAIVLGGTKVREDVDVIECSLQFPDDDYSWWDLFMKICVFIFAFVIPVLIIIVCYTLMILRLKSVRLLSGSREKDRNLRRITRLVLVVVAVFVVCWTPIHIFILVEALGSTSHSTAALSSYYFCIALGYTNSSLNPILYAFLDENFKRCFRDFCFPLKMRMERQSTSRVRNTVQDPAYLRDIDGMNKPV
Outline: as §2

Human μ-opioid (MOP) = molecular target: T11, Human μ-opioid (MOP) (Homo sapiens, UniProt P35372); experiment: Radioligand binding, human μ-opioid (MOP) membranes, FlashPlate, [3H]-Naloxone
T11 construct: purchased Perkin Elmer Biosignal
T11 sequence (P35372 whole entry): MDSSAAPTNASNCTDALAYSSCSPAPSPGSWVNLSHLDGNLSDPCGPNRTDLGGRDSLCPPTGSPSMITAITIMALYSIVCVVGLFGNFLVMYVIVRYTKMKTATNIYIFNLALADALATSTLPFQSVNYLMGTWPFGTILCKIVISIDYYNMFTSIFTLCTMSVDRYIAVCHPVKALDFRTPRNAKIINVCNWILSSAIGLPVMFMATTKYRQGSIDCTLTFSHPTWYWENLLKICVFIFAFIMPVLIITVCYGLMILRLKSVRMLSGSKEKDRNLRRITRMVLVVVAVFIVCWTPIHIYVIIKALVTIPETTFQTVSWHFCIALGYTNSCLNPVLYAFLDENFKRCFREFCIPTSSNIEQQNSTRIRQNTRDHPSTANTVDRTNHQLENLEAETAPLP
Outline: as §1

T1 sequence (P41146 whole entry): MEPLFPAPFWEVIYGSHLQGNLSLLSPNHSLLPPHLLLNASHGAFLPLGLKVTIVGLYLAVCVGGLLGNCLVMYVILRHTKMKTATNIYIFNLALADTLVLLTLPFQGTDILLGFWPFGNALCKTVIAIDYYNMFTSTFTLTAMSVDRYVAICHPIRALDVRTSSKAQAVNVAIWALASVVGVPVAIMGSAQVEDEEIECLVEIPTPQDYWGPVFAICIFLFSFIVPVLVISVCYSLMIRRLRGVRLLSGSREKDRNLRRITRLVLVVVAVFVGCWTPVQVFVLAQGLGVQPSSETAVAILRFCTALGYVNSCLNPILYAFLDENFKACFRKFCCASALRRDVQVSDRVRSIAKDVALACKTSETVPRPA

| Compound | A10: inhibition of radioligand binding, human opioid (ORL1) (Human opioid (ORL1); [125I]-Nociceptin) | A11: inhibition of radioligand binding, mouse urotensin (mUR2) (Mouse urotensin (mUR2); [125I]-Urotensin II) | A8: inhibition of radioligand binding, human neurokinin (NK1) (Human neurokinin (NK1); [125I]-Substance P) | A5: inhibition of radioligand binding, human melanocortin (MC5) (Human melanocortin (MC5); [125I]-NDP-αMSH) | A4: inhibition of radioligand binding, human melanocortin (MC4) (Human Melanocortin (MC4); [125I]-NDP-αMSH) | A1: inhibition of radioligand binding, human δ-opioid (DOP) (Human δ-opioid (DOP); [3H]-Bremazocine) | A3: inhibition of radioligand binding, human melanocortin (MC3) (Human Melanocortin (MC3); [125I]-NDP-αMSH) | A6: inhibition of radioligand binding, human melanin-concentrating hormone (MCH1) ([1]; [125I]-S36057) | A9: inhibition of radioligand binding, human neuropeptide Y (NPY-Y1) ([2]; [125I]-PYY) | A2: inhibition of radioligand binding, human κ-opioid (KOP) (Human κ-Opioid (KOP); [3H]-Diprenorphine) | A7: inhibition of radioligand binding, human μ-opioid (MOP) (Human μ-opioid (MOP); [3H]-Naloxone) | other results |
| --- | --- | --- | --- | --- | --- | --- | --- | --- | --- | --- | --- | --- |
| COC[C@H]1OC(OCc2ccccc2)[C@H](NC(=O)CNC(=N)N)[C@@H](OCc2ccc(Cl)cc2)[C@@H]1O (stereo partly shown) [compound 27] |  |  |  |  |  |  |  |  |  |  |  | A10 radioligand binding inhibition (Human opioid (ORL1); human ORL1 membranes): − (“−” indicates less than 50% inhibition at 10 μM); A11 radioligand binding inhibition (Mouse urotensin (mUR2); mouse urotensin mUR2 membranes): − (“−” indicates less than 50% inhibition at 10 μM); A8 radioligand binding inhibition (Human neurokinin (NK1); human neurokinin NK1 membranes): − (“−” indicates less than 50% inhibition at 10 μM); A5 radioligand binding inhibition (Human melanocortin (MC5); human melanocortin MC5 membranes): + (“+” indicates greater than 50% inhibition at 10 μM); A4 radioligand binding inhibition (Human Melanocortin (MC4); human melanocortin MC4 membranes): − (“−” indicates less than 50% inhibition at 10 μM); A1 radioligand binding inhibition (Human δ-opioid (DOP); human δ-opioid (DOP) membranes): − (“−” indicates less than 50% inhibition at 10 μM); A3 radioligand binding inhibition (Human Melanocortin (MC3); human melanocortin MC3 membranes): − (“−” indicates less than 50% inhibition at 10 μM); A6 radioligand binding inhibition ([1]; human MCH1 membranes): − (“−” indicates less than 50% inhibition at 10 μM); A9 radioligand binding inhibition ([2]; human NPY-Y1 membranes): − (“−” indicates less than 50% inhibition at 10 μM); A2 radioligand binding inhibition (Human κ-Opioid (KOP); human κ-opioid (KOP) membranes): − (“−” indicates less than 50% inhibition at 10 μM); A7 radioligand binding inhibition (Human μ-opioid (MOP); human μ-opioid (MOP) membranes): − (“−” indicates less than 50% inhibition at 10 μM) |
| CSC1O[C@H](COCc2ccccc2)[C@@H](O)[C@@H](OCc2ccc(-c3ccccc3)cc2)[C@H]1NC(=O)CNC(=N)N (stereo partly shown) [compound 284] | − (“−” indicates less than 50% inhibition at 10 μM) | − (“−” indicates less than 50% inhibition at 10 μM) | + (“+” indicates greater than 50% inhibition at 10 μM) | + (“+” indicates greater than 50% inhibition at 10 μM) | + (“+” indicates greater than 50% inhibition at 10 μM) | − (“−” indicates less than 50% inhibition at 10 μM) | − (“−” indicates less than 50% inhibition at 10 μM) | − (“−” indicates less than 50% inhibition at 10 μM) | − (“−” indicates less than 50% inhibition at 10 μM) | − (“−” indicates less than 50% inhibition at 10 μM) | − (“−” indicates less than 50% inhibition at 10 μM) |  |
| N=C(N)NCCC(=O)N[C@H]1C(OCc2ccc(Cl)cc2)O[C@H](COCc2ccc3ccccc3c2)[C@@H](O)[C@@H]1OCc1ccc(-c2ccccc2)cc1 (stereo partly shown) [compound 534] | − (“−” indicates less than 50% inhibition at 10 μM) | − (“−” indicates less than 50% inhibition at 10 μM) | + (“+” indicates greater than 50% inhibition at 10 μM) | + (“+” indicates greater than 50% inhibition at 10 μM) | + (“+” indicates greater than 50% inhibition at 10 μM) | − (“−” indicates less than 50% inhibition at 10 μM) | + (“+” indicates greater than 50% inhibition at 10 μM) | + (“+” indicates greater than 50% inhibition at 10 μM) | − (“−” indicates less than 50% inhibition at 10 μM) | − (“−” indicates less than 50% inhibition at 10 μM) | − (“−” indicates less than 50% inhibition at 10 μM) |  |
| CSC1O[C@H](COCc2ccc(Cl)cc2)[C@@H](O)[C@@H](OCc2ccc(-c3ccccc3)cc2)[C@H]1NC(=O)CCN (stereo partly shown) [compound 290] | − (“−” indicates less than 50% inhibition at 10 μM) | − (“−” indicates less than 50% inhibition at 10 μM) | + (“+” indicates greater than 50% inhibition at 10 μM) | + (“+” indicates greater than 50% inhibition at 10 μM) | − (“−” indicates less than 50% inhibition at 10 μM) | − (“−” indicates less than 50% inhibition at 10 μM) | − (“−” indicates less than 50% inhibition at 10 μM) | − (“−” indicates less than 50% inhibition at 10 μM) | − (“−” indicates less than 50% inhibition at 10 μM) | − (“−” indicates less than 50% inhibition at 10 μM) | − (“−” indicates less than 50% inhibition at 10 μM) |  |
| CO[C@H]1[C@H](O)[C@@H](COCc2ccccc2)OC(OCc2ccc(Cl)cc2)[C@@H]1NC(=O)CCCNC(=N)N (stereo partly shown) [compound 104] |  |  |  |  |  |  |  |  |  |  |  | A10 radioligand binding, percentage inhibition (Human opioid (ORL1); [125I]-Nociceptin): − (“−” indicates less than 50% inhibition at 10 μM); A11 radioligand binding, percentage inhibition (Mouse urotensin (mUR2); [125I]-Urotensin II): − (“−” indicates less than 50% inhibition at 10 μM); A8 radioligand binding, percentage inhibition (Human neurokinin (NK1); [125I]-Substance P): + (“+” indicates greater than 50% inhibition at 10 μM); A5 radioligand binding, percentage inhibition (Human melanocortin (MC5); [125I]-NDP-αMSH): + (“+” indicates greater than 50% inhibition at 10 μM); A4 radioligand binding, percentage inhibition (Human Melanocortin (MC4); [125I]-NDP-αMSH): + (“+” indicates greater than 50% inhibition at 10 μM); A1 radioligand binding, percentage inhibition (Human δ-opioid (DOP); [3H]-Bremazocine): − (“−” indicates less than 50% inhibition at 10 μM); A3 radioligand binding, percentage inhibition (Human Melanocortin (MC3); [125I]-NDP-αMSH): − (“−” indicates less than 50% inhibition at 10 μM); A6 radioligand binding, percentage inhibition ([1]; [125I]-S36057): − (“−” indicates less than 50% inhibition at 10 μM); A9 radioligand binding, percentage inhibition ([2]; [125I]-PYY): − (“−” indicates less than 50% inhibition at 10 μM); A2 radioligand binding, percentage inhibition (Human κ-Opioid (KOP); [3H]-Diprenorphine): − (“−” indicates less than 50% inhibition at 10 μM); A7 radioligand binding, percentage inhibition (Human μ-opioid (MOP); [3H]-Naloxone): + (“+” indicates greater than 50% inhibition at 10 μM) |
